# Test results: US20160113932A1, “TREATMENT OF CANCERS USING PI3 KINASE ISOFORM MODULATORS” (INFINITY PHARMACEUTICALS, INC., priority 2013, published 2016)
# Several values for one entry are separate records, joined by “and”; a condition that tells them apart may be missing. Equal entries are not always repeated. Entries after “also recorded” stand apart in the source; their conditions may differ.
# Assays:
# Human T-cell = Human T-cell proliferation; format: cell-based
# [1] = Plasma protein binding in vitro, rat; format: in vitro ADME; conditions: all concentrations tested
# central nervous system = assay: Neurofunctional study (FOB, motor activity) in Sprague-Dawley rat; format: in vivo; conditions: male rats, 2 h after a 350 mg/kg dose
# respiratory system = assay: Respiratory study in Sprague Dawley rat; format: in vivo; conditions: male rat, single oral administration up to 350 mg/kg
# [2] = Absolute bioavailability / pharmacokinetics in Sprague-Dawley rats; format: in vivo; conditions: Rat, PO, 10 mg/kg, suspension
# [3] = Absolute bioavailability / pharmacokinetics in Beagle dogs; format: in vivo; conditions: Dog, PO, 5 mg/kg
# [4] = Absolute bioavailability / pharmacokinetics in cynomolgus monkeys; format: in vivo; conditions: Monkey, PO, 5 mg/kg, suspension
# [5] = Tissue distribution of radiolabelled Compound 292 in rat; format: in vivo
# human P-glycoprotein = biological target: T1, human P-glycoprotein (Homo sapiens, UniProt P08183); assay: Interaction with human P-glycoprotein in Caco-2 cell monolayers; format: in vitro ADME
# T1 construct: assessed in vitro using Caco-2 cell monolayers; endogenous in cells; host or cells: Caco-2 cell monolayers
# T1 sequence (P08183 whole entry): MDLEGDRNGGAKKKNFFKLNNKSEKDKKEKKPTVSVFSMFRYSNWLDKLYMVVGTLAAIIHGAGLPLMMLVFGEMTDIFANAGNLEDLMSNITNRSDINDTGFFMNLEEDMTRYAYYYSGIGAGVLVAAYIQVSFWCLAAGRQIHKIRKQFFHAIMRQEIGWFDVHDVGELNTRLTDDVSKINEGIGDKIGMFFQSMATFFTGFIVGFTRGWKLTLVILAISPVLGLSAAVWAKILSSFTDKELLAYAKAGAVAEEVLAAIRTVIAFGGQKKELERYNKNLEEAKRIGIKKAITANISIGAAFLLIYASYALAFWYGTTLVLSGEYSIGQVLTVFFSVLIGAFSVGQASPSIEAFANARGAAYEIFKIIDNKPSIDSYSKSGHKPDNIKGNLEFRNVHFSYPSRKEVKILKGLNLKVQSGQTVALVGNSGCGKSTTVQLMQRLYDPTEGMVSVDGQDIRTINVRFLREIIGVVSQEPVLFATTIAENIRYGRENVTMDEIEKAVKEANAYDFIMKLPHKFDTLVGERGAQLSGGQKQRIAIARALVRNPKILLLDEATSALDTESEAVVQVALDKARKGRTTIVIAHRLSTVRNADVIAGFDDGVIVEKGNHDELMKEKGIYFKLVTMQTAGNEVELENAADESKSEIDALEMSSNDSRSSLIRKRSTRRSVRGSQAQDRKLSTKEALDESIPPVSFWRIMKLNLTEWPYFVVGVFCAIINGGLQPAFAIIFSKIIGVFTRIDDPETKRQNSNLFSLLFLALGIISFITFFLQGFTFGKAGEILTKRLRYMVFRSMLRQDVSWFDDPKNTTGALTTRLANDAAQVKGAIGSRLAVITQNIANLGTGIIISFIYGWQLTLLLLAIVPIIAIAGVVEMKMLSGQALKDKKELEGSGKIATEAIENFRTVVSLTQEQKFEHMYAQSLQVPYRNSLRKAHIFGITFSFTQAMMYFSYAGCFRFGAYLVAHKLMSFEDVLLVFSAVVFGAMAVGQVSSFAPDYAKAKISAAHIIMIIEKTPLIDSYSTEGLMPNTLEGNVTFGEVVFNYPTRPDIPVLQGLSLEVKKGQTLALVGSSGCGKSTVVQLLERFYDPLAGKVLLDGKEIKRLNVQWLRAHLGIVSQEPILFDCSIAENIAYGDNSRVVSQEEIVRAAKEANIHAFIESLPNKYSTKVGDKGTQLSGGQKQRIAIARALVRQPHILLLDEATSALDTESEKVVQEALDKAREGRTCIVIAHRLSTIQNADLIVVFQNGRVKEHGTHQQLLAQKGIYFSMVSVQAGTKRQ
# [6] = In vitro genetic toxicity studies
# [7] = In vivo rat micronucleus assay
# PI3K δ [8] = biological target: T2, PI3K δ (Homo sapiens, UniProt O00329); assay: PI3K-δ suppression level (IC90) quoted with clinical plasma concentrations
# Target sequence in this assay (O00329 whole entry, species assumed): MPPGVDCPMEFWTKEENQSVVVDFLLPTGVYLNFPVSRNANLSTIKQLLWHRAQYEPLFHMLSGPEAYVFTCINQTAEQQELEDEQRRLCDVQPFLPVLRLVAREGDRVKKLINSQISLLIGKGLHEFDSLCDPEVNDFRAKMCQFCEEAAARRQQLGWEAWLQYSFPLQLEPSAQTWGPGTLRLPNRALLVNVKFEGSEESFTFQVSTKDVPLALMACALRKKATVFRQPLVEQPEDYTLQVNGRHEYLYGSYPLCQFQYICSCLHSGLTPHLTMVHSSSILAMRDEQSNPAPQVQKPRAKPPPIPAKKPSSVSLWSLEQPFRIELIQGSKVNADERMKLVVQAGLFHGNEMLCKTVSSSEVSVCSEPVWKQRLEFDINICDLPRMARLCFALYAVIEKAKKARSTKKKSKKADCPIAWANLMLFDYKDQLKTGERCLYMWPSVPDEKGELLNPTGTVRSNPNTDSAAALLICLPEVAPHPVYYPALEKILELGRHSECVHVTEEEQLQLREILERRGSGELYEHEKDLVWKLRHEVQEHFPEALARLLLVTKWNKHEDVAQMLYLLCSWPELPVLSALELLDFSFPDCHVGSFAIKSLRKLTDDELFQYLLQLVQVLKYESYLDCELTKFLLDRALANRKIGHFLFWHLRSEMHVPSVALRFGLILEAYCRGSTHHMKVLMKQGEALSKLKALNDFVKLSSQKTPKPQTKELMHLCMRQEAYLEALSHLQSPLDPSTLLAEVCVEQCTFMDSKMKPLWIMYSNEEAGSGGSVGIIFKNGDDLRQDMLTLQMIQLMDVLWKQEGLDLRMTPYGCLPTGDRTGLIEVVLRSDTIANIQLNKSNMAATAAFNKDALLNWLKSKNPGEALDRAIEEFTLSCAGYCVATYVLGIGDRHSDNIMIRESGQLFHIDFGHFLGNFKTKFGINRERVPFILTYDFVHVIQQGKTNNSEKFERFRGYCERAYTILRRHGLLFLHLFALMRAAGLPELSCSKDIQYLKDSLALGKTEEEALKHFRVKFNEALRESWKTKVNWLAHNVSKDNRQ
# Target sequence in this assay (P27986 whole entry partner, species assumed): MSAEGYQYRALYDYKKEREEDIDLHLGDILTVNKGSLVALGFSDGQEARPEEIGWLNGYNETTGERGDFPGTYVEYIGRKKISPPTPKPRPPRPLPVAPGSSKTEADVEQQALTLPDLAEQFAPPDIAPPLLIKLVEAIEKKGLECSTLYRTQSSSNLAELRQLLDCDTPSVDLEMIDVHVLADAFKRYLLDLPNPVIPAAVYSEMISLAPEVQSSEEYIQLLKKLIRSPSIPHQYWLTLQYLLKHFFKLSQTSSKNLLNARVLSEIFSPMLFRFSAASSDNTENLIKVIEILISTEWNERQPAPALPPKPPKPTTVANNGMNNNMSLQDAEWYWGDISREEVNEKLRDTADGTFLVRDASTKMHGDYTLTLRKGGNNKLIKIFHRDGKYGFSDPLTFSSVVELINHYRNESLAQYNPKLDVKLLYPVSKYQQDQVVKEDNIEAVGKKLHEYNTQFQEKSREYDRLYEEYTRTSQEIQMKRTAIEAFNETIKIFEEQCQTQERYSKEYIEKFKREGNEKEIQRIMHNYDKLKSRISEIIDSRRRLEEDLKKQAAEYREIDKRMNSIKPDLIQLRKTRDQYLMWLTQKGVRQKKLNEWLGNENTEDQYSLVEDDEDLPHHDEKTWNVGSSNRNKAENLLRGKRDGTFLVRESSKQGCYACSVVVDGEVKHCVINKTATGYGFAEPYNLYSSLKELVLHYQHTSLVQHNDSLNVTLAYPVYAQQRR
# [9] = Phase 1 study in healthy subjects: pharmacokinetics (single dose, multiple dose, food effect, DDI); format: in vivo, human; conditions: for AUC(0-24): mean (% CV)
# [10] = Phase 1 study in healthy subjects: safety and tolerability; format: in vivo
# Method: Serial ECGs were performed at multiple time points after dosing in all study groups.
# In addition, a rapid response was observed, assessed as reduction in CD63^+ expression on CCR3^+ basophils in an ex vivo anti-FcεR1 activation assay (FIG. 1-3). […] CD63^+ expression returned to baseline as plasma drug concentrations declined. […] The most common non-procedural AEs occurring in ≧2 subjects were headache (8% vs. 25% PLB), myalgia (6% vs. 8% PLB), and nasopharyngitis (6% vs. 0% PLB). […] No clinical significant findings in safety lab studies of ECGs were observed.
# [11] = Phase 1 study in hematologic malignancies: pharmacokinetics, steady state plasma concentrations; format: in vivo, human
# Method: PK and PD markers were evaluated after the first dose (e.g., 8 mg BID) and at steady state. PD activity (PI3K inhibition) in whole blood was evaluated using a basophil activation assay which measured reduction in CD63 expression on the surface of basophils following ex vivo stimulation.
# Pfeiffer = assay: DLBCL cellular growth inhibition assay; format: cell-based; conditions: Homo sapiens
# U2932 = assay: DLBCL cellular growth inhibition, 72 hour CTG assay; format: cell-based; conditions: Homo sapiens
# HH = assay: CTCL cytotoxicity, 72 hours; format: cell-based; conditions: HH cells, vs MJ or HuT78
# Method: (§1) MJ and HuT78 cells were grown in IMDM 20% FBS, and HH cells were grown in RPMI 10% FBS.
# HuT78 = assay: CTCL cytotoxicity, 72 hours; format: cell-based; conditions: HuT78 cells
# Method: as §1
# MJ = assay: CTCL cytotoxicity, 72 hours; format: cell-based; conditions: MJ cells
# Method: as §1
# [12] = test system: pAKT and Ki-67 expression in primary CLL cells; assay: CLL cell proliferation with CD40L/IL-2/IL-10, four color FACS; format: cell-based; conditions: Homo sapiens, primary CLL cells stimulated with CD40L/IL-2/IL-10, n=2, read-out: EC50, inhibition of pAKT and Ki-67 expression
# Method: Generally, CLL cells were seeded and incubated with proliferation cocktail (containing sCD40L, rH-IL 10 and rH-IL 2) in media. Then, four color FACS analysis was performed using antibodies to pAKT, Ki-67, CD19 and CD5.
# migration of CLL cells = assay: Chemotaxis assay of CLL cells; format: cell-based, human; conditions: range 2-42%; n=8
# Excerpt: (FIGS. 35 and 36). […] In addition, this direct inhibitory effect on CLL cells in the lymph nodes could lead to rapid and prolonged responses in cancer patients.
# hERG channel current = hERG channel current (Homo sapiens, UniProt Q12809); assay: In vitro hERG assay; conditions: hERG IC50 fit
# Sequence of hERG channel current (Q12809 whole entry): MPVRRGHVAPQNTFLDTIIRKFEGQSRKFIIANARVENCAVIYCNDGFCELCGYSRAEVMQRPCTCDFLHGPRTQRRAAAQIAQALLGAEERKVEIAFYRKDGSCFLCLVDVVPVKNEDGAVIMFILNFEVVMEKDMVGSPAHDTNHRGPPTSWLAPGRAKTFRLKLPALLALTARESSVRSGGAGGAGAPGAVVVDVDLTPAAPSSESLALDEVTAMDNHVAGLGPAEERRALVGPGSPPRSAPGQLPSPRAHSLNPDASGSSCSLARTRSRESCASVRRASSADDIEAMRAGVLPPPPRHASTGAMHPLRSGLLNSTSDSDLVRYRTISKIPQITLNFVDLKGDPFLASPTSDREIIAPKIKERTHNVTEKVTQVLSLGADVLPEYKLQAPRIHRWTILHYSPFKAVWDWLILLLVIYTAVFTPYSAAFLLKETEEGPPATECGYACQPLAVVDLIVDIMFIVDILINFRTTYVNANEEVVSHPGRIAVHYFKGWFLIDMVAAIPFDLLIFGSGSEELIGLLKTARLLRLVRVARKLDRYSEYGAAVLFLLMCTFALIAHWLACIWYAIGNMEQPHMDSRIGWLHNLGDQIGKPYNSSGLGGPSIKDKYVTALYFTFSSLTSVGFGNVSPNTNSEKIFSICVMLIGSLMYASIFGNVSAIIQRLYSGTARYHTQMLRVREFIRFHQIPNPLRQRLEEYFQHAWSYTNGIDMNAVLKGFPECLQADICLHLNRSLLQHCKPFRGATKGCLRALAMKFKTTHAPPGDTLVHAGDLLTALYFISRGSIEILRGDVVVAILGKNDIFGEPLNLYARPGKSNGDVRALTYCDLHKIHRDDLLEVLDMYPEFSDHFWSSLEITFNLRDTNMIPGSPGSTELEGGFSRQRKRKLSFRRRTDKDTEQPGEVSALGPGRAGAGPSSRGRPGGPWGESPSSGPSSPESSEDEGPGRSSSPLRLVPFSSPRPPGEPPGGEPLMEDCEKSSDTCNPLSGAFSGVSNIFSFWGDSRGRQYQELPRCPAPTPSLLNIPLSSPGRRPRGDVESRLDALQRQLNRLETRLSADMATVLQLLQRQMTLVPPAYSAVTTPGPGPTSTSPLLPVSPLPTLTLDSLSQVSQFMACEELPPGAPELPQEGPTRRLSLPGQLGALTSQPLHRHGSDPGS
# PI3K δ [13] = biological target: T2, PI3K δ; assay: Plasma concentration for suppression of PI3K-δ (PK/PD); set-up: endogenous in cells; host or cells: RAJI (human Burkitt lymphoma)
# Target sequence in this assay (O00329 whole entry): as the sequence (O00329 whole entry, species assumed) above
# Target sequence in this assay (P27986 whole entry partner): as the sequence (P27986 whole entry partner, species assumed) above
# [14] = multiple doses for 2 weeks (n=36)
smiles,measurement,setting,value
C[C@H](Nc1ncnc2[nH]cnc12)c1cc2cccc(Cl)c2c(=O)n1-c1ccccc1 [Compound 292],EC50,Human T-cell,5 to 10 nM
same,percent free in plasma compared with human plasma,[1],consistently higher
same,locomotor activity,central nervous system,Significant decreases
same,"effects on respiratory parameters (respiratory rate, tidal volume, minute volume)",respiratory system,no Compound 292-related effects
same,Foral,[2],57%
same,Foral,[3]; calculated using 0.5 mg/kg IV dose as reference and AUC0-last,97g'i %
same,Foral,[3]; calculated using 1 mg/kg IV dose as reference and AUC0-last,40% and 40h'i %
same,Foral,[4],40%
same,distribution into rat tissues,[5],rapid and extensive
same,elimination of radiolabelled Compound 292 from tissues,[5]; majority of tissues without quantifiable radioactivity at 24 hr,rapid
same,P-gp substrate status,human P-glycoprotein,is a P-gp substrate
same,inhibition of active transport of other P-gp substrates,human P-glycoprotein,has the potential to inhibit
same,genetic toxicity,[6],no genetic toxicity
same,adverse effect in micronucleus assay,[7],no direct adverse effect
same,IC90,PI3K δ [8],0.361 µg/mL
same,increase of Cmax in the presence of ketoconazole,"[9]; DDI portion, 200 mg ql2h ketoconazole",approximately 66%
same,accumulation,[9]; following 14 days of Q12 h oral administration,less than 2 fold
same,dose dependence of exposure (Cmax and AUC),"[9]; healthy subjects, across the dose ranges evaluated",increased proportionally to dose; also recorded: dose-proportional pharmacokinetics
same,AUC(0-24),[9]; single dose 1 mg,149 (67) ng*hr/mL
same,AUC(0-24),[9]; single dose 2 mg,289 (43) ng*hr/mL
same,AUC(0-24),[9]; single dose 5 mg,733 (5) ng*hr/mL
same,AUC(0-24),[9]; single dose 10 mg,891 (14) ng*hr/mL
same,AUC(0-24),[9]; single dose 20 mg,2193 (16) ng*hr/mL
same,AUC(0-24),[9]; single dose 30 mg,3263 (38) ng*hr/mL
same,IgE,[10]; healthy subjects,No increases in IgE
same,QTcF at any assessment,"[10]; healthy subjects, serial ECGs",≤ 500 ms
same,tolerability,"[10]; healthy subjects, single doses up to 30 mg, multiple doses up to 10 mg daily for 14 days",well tolerated; also recorded: well-tolerated
same,"headache, subjects",[10]; [14],8%
same,"myalgia, subjects",[10]; [14],6%
same,"nasopharyngitis, subjects",[10]; [14],6%
same,mean predose steady state plasma concentration,"[11]; 25 mg BID, C2D1",390 ng/mL
same,dose dependence of plasma Cmax and AUC,"[11]; patients with hematologic malignancies, BID dosing",dose-proportional increases; also recorded: dose-proportional PK; also recorded: linear PK profile; also recorded: increases proportionally with doses
same,time of maximum plasma concentration post-dosing,"[11]; steady state C2D1, 25 mg and 75 mg BID",about 1 hour
same,IC50,Pfeiffer,> 50 µM
same,IC50,U2932,> 50 µM
same,"cytotoxicity, sensitivity",HH,more sensitive
same,"cytotoxicity, sensitivity",HuT78,medium sensitivity
same,"cytotoxicity, sensitivity",MJ,resistant
same,EC50,[12],< 10 nM
same,"reduction in migration of CLL cells, % control reduction, median",migration of CLL cells,23%
same,Hill coefficient,hERG channel current,1.3
same,IC90,PI3K δ [13],0.361 µg/mL
